The source of these data is US8871681B2, “Herbicidal compositions comprising 4-amino-3-chloro-5-fluoro-6-(4-chloro-2-fluoro-3-methoxyphenyl) pyridine-2-carboxylic acid or a derivative thereof and certain sulfonylureas” (Dow AgroSciences LLC, priority 2012, dated 2014).

The experiment concerns ECHOR (Echinochloa oryzoides, early watergrass). The experiment is described as follows: In-water applied weed control, transplanted paddy rice, greenhouse (Example II). Type of experiment: in vivo, Echinochloa oryzoides (Ard.) Fritsch. The method in brief:
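Transplanted rice and weeds at first to fourth true leaf stage in flooded mud pots (2.5–3 cm water), greenhouse ~29/26 °C day/night. Herbicides alone or mixed, in 1.25% crop oil concentrate (acetone for technical material), injected into the flood; visual 0–100% injury after ~3 weeks, expected mixture effects by Colby.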

On to `COC(=O)c1ccccc1CS(=O)(=O)NC(=O)Nc1nc(OC)cc(OC)n1` [Bensulfuron-methyl, methyl 2-[[[[[(4,6-dimethoxy-2-pyrimidinyl)amino]carbonyl]amino]sulfonyl]methyl]benzoate, reference compound], for which the “Visual Weed Control (%) - 25 DAA ECHOR Obs” value by setting is: (Table 31, 35 gai/ha alone) 80%; (Table 31, 70 gai/ha alone) 85%. Further, the “Visual Weed Control (%) - 19 DAA ECHOR Obs” value (Table 31, 70 gai/ha alone) turned out to be 78%. Further, the “Visual Weed Control (%) - 21 DAA ECHOR Obs” value by setting is: (Table 32, 35 gai/ha alone) 0%; (Table 32, 70 gai/ha alone) 15%.

As to `COc1c(Cl)ccc(-c2nc(C(=O)O)c(Cl)c(N)c2F)c1F` [Compound A Acid, 4-amino-3-chloro-5-fluoro-6-(4-chloro-2-fluoro-3-methoxy-phenyl)pyridine-2-carboxylic acid], the “Visual Weed Control (%) - 20 DAA ECHOR Obs” value is, setting by setting: (Table 28, 8.75 gae/ha alone) 20%; (Table 28, 17.5 gae/ha alone) 30%; (Table 28, 35 gae/ha alone) 40%; (Table 28, second set, 35 gae/ha alone) 25%; (Table 28, second set, 70 gae/ha alone) 35%; (Table 43, 10.6 gae/ha alone) 10%. The “Visual Weed Control (%) - 20 DAA ECHOR Obs” value (Table 43, 21.2 gae/ha alone) is given as 30% and the “Visual Weed Control (%) - 20 DAA ECHOR Obs” value (Table 43, 42.4 gae/ha alone) was 45%. Further, the “Visual Weed Control (%) - 25 DAA ECHOR Obs” value (Table 31, 8.75 gae/ha alone) is reported as 0%; the “Visual Weed Control (%) - 25 DAA ECHOR Obs” value (Table 31, 17.5 gae/ha alone) is recorded as 0%; the “Visual Weed Control (%) - 25 DAA ECHOR Obs” value (Table 31, 35 gae/ha alone) is recorded as 40%. The “Visual Weed Control (%) - 19 DAA ECHOR Obs” value (Table 31, 42 gae/ha alone) came out at 15%. Also, the “Visual Weed Control (%) - 22 DAA ECHOR Obs” value (Table 34, 10.6 gae/ha alone) is given as 15%; the “Visual Weed Control (%) - 22 DAA ECHOR Obs” value (Table 34, 21.2 gae/ha alone) was 30%; the “Visual Weed Control (%) - 22 DAA ECHOR Obs” value (Table 34, 42.4 gae/ha alone) is given as 40%. Also, the “Visual Weed Control (%) - 21 DAA ECHOR Obs” value runs as follows: (Table 36, 8.75 gae/ha alone) 10%; (Table 36, 17.5 gae/ha alone) 10%; (Table 36, 35 gae/ha alone) 15%; (Table 41, 10.6 gae/ha alone) 0%; (Table 41, 21.2 gae/ha alone) 15%; (Table 41, 42.4 gae/ha alone) 15%.

As for `COc1c(Cl)ccc(-c2nc(C(=O)OCc3ccccc3)c(Cl)c(N)c2F)c1F` [Compound A Benzyl Ester], the “Visual Weed Control (%) - 20 DAA ECHOR Obs” value by setting is: (Table 29, 4.38 gae/ha alone) 10%; (Table 29, 8.75 gae/ha alone) 20%; (Table 29, 17.5 gae/ha alone) 30%; (Table 29, 35 gae/ha alone) 53%; (Table 29, 70 gae/ha alone) 73%; (Table 44, 8.75 gae/ha alone) 20%. The “Visual Weed Control (%) - 20 DAA ECHOR Obs” value (Table 44, 17.5 gae/ha alone) is reported as 30%. For the same compound, the “Visual Weed Control (%) - 21 DAA ECHOR Obs” value by setting is: (Table 32, 8 gae/ha alone) 8%; (Table 32, 16 gae/ha alone) 5%; (Table 37, 8.75 gae/ha alone) 25%; (Table 37, 17.5 gae/ha alone) 25%; (Table 42, 4.38 gae/ha alone) 15%; (Table 42, 8.75 gae/ha alone) 15%. The “Visual Weed Control (%) - 21 DAA ECHOR Obs” value was 20% (Table 42, 17.5 gae/ha alone); 0% (Table 46, 4.38 gae/ha alone); 10% (Table 46, 8.75 gae/ha alone); 60% (Table 46, 17.5 gae/ha alone). In addition, the “Visual Weed Control (%) - 22 DAA ECHOR Obs” value (Table 35, 17.5 gae/ha alone) came out at 30%.

Consider `COCC(=O)OC(c1ncccc1S(=O)(=O)NC(=O)Nc1nc(OC)cc(OC)n1)C(C)F` (stereo not shown) [Flucetosulfuron, 1-[3-[[[[(4,6-dimethoxy-2-pyrimidinyl)amino]carbonyl]amino]sulfonyl]-2-pyridinyl]-2-fluoropropyl 2-methoxyacetate], for which the “Visual Weed Control (%) - 21 DAA ECHOR Obs” value (Table 36, 0.1 gai/ha alone) was found to be 0%; the “Visual Weed Control (%) - 21 DAA ECHOR Obs” value (Table 36, 0.2 gai/ha alone) is reported as 0%; the “Visual Weed Control (%) - 21 DAA ECHOR Obs” value (Table 37, 0.1 gai/ha alone) is reported as 0%; the “Visual Weed Control (%) - 21 DAA ECHOR Obs” value (Table 37, 0.2 gai/ha alone) is listed as 0%.

With `COC(=O)c1ccccc1S(=O)(=O)NC(=O)Nc1nc(C)nc(OC)n1` [Metsulfuron-methyl, methyl 2-[[[[(4-methoxy-6-methyl-1,3,5-triazin-2-yl)amino]carbonyl]amino]sulfonyl]benzoate, reference compound], the “Visual Weed Control (%) - 21 DAA ECHOR Obs” value is, setting by setting: (Table 41, 7.5 gai/ha alone) 50%; (Table 41, 15 gai/ha alone) 65%; (Table 42, 7.5 gai/ha alone) 50%; (Table 42, 15 gai/ha alone) 65%.
